# From ChEMBL document CHEMBL5465560, “Selectivity Literature for EUbOPEN Chemogenomic Library” (2024)
# Assays:
# [1] = biological target: T1, Serine/threonine-protein kinase Nek1 (Homo sapiens) (UniProt Q96PY6); test: Selectivity interaction (Kinase panel (KiNativ target engagement assay in Jurkat cells)) EUB0001635a NEK1; assay type: cell-based; conditions: at 1 µM
# T1 sequence (whole entry): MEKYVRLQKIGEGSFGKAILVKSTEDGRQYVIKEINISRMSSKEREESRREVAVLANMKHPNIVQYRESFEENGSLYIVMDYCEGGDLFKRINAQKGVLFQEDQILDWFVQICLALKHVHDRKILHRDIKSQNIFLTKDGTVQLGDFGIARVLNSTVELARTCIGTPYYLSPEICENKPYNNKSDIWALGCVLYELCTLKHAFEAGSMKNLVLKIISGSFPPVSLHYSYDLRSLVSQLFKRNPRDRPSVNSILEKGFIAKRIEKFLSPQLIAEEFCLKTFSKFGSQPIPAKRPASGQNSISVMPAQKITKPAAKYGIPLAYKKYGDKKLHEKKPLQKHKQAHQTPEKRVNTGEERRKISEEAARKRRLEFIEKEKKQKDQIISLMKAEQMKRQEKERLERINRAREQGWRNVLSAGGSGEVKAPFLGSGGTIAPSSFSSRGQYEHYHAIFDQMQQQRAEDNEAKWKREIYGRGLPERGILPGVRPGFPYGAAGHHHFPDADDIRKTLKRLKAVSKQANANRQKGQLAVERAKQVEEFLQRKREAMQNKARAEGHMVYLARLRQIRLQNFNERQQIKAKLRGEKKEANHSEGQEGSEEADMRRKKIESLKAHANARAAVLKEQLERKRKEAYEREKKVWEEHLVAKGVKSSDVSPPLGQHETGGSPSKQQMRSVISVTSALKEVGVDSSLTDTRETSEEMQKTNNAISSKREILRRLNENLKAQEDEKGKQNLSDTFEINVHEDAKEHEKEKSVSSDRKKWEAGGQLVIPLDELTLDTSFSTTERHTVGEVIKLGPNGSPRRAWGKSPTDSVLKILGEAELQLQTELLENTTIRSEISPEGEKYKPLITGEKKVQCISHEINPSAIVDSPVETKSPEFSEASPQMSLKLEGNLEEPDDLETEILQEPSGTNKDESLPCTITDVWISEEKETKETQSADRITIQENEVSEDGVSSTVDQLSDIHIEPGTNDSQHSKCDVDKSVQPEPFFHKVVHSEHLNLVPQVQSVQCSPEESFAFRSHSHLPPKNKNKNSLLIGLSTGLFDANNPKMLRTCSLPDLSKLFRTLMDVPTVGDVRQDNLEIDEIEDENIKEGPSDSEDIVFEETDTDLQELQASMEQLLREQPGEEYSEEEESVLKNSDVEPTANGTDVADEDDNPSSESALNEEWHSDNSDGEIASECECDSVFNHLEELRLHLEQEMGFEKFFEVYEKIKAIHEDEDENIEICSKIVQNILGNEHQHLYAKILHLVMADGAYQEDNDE
# [2] = biological target: T2, Serine/threonine-protein kinase TBK1 (Homo sapiens) (UniProt Q9UHD2); test: Selectivity interaction (KinomeScan (DiscoverX)) EUB0000045b TBK1
# T2 sequence (whole entry): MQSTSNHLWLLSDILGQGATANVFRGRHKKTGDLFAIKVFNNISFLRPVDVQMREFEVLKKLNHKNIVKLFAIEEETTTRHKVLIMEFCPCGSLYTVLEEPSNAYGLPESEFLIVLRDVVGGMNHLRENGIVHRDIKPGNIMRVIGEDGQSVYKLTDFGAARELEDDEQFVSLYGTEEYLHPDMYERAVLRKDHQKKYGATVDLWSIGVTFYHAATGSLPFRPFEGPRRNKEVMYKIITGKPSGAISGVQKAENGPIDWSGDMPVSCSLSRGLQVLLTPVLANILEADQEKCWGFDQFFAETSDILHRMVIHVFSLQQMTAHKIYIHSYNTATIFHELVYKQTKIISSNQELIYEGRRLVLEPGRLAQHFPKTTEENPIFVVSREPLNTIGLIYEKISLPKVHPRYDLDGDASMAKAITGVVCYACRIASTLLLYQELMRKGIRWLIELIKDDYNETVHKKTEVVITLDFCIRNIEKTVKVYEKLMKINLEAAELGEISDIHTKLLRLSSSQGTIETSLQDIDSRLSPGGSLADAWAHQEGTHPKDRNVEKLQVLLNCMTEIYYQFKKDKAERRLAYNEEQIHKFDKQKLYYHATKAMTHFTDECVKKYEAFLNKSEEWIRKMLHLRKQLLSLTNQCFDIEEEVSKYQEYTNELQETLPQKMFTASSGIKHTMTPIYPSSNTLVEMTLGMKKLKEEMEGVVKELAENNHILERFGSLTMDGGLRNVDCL
# [3] = biological target: Bone morphogenetic protein receptor type-1B (Homo sapiens, UniProt O00238); test: Selectivity interaction (KinomeScan (DiscoverX)) EUB0001079a BMPR1B; conditions: at 1 µM
# Sequence of Bone morphogenetic protein receptor type-1B (O00238 whole entry): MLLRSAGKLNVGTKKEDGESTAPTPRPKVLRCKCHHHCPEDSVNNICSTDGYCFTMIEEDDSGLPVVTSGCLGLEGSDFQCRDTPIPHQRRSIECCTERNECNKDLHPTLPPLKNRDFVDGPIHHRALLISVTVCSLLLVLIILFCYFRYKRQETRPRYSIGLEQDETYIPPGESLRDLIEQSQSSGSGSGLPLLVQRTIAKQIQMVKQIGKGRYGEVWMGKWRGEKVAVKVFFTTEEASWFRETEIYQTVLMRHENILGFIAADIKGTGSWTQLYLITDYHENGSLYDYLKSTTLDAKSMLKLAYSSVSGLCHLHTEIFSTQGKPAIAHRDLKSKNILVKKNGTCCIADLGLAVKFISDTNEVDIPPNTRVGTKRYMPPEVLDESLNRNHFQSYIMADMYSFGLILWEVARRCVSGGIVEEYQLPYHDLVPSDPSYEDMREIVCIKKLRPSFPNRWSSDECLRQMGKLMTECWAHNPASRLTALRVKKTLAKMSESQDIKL
# [4] = biological target: Dual specificity mitogen-activated protein kinase kinase 1 (Homo sapiens, UniProt Q02750); test: Selectivity interaction (ActivX KiNativ screen (kinase selectivity in THP-1 cell lysates)) EUB0000639a MAP2K1; assay type: subcellular; conditions: lysate, at 5 µM
# Sequence of Dual specificity mitogen-activated protein kinase kinase 1 (Q02750 whole entry): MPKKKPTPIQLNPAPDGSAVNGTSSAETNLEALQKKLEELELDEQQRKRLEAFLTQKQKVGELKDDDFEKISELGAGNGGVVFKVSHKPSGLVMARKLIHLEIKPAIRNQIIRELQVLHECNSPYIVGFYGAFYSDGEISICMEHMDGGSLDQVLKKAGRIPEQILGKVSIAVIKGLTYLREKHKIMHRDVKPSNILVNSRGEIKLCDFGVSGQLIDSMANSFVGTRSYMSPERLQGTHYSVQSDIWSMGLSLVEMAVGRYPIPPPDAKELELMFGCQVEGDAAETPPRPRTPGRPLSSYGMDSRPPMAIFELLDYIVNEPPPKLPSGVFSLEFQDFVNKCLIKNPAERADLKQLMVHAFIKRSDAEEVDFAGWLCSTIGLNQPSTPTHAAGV
# [5] = biological target: Ribosomal protein S6 kinase alpha-1 (Homo sapiens, UniProt Q15418); test: Selectivity interaction (ActivX KiNativ screen (kinase selectivity in THP-1 cell lysates)) EUB0000639a RPS6KA1; assay type: subcellular; conditions: lysate, at 1 µM
# Sequence of Ribosomal protein S6 kinase alpha-1 (Q15418 whole entry): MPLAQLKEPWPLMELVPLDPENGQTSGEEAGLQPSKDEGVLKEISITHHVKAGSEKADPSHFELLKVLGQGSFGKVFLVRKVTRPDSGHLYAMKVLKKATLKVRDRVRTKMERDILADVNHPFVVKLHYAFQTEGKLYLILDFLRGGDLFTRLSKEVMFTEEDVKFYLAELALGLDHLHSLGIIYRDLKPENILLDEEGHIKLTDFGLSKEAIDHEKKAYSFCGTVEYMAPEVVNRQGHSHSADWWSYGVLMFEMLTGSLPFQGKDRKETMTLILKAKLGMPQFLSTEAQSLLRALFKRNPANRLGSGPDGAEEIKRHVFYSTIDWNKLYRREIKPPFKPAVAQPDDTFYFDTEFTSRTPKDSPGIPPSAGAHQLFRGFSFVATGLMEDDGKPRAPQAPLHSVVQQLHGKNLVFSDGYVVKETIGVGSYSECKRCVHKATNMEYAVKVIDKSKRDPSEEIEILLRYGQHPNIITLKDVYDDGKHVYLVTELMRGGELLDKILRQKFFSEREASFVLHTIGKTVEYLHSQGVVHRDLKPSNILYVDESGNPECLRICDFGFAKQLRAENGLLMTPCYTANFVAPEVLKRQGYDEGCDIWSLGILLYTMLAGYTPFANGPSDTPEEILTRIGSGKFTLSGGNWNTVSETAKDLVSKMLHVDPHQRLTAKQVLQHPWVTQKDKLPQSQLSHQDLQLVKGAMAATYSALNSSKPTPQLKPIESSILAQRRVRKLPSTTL
compound,measurement,setting,value
C=CC(=O)Nc1ccc(C(=O)Nc2[nH]nc3c2CN(C(=O)N[C@H](CN(C)C)c2ccccc2)C3(C)C)cc1,% of engagement,[1],-2.5%
C=CC(=O)Nc1cc(-n2c(=O)ccc3cnc4ccc(-c5ccc(NS(C)(=O)=O)cc5)cc4c32)ccc1C,% of control,[2]; at 1 µM,100%
same,% of control,[2]; at 10 µM,77%
Nc1cnc(N2CCc3cc(S(=O)(=O)Nc4c(F)cc(Cl)cc4F)cc(N4CCCC4=O)c32)nc1 [TP-020n],% of control,[3],100%
CC[C@@H]1[C@H](F)C(=O)N[C@@H]1COc1nccc2cc(C(N)=O)c(OC)cc12 [ZIMLOVISERTIB],% of inhibition,[4],20.8%
same,% of inhibition,[5],-1%
